SMILES strings stand for the structures. Where two headings read alike, the source gives them in different places. Marks after values point to notes of the source that are not given here.

For data set [1] the following is noted: published data; ref Leopoldo et al, 2002. [24]; cited from earlier work.
The target in data set [2] is T1, human D3 receptors expressed in stably transfected HEK 293 cells (Homo sapiens, UniProt P35462). Kind of data set: Forskolin-dependent whole cell adenylyl cyclase inhibition assay, D3. It is filed as cell-based. Particulars: result in words.
The target in data set [3] is human D3 dopamine receptor (Homo sapiens, UniProt P35462). Kind of data set: Competitive radioligand binding, D3 dopamine receptor. The following applies: D2:D3 Ki value ratio.
In data set [4] the target is T1, human D3 receptors expressed in stably transfected HEK 293 cells. Particulars: result in words, previously reported; cited from earlier work.

T1 sequence (P35462 whole entry): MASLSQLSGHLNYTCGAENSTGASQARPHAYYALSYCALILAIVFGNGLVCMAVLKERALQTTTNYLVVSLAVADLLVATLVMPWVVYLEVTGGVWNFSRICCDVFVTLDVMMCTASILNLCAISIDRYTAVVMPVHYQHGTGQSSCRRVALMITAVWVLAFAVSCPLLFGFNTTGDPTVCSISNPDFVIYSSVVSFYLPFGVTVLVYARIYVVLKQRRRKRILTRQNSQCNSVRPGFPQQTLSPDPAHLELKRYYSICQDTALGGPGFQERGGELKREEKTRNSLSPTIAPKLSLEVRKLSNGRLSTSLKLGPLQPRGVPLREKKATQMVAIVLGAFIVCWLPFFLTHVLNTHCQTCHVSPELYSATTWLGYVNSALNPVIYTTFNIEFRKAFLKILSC
Chain of human D3 dopamine receptor (P35462 whole entry): as above

For the molecule `O=C(NCCCCN1CCN(c2cccc(Cl)c2Cl)CC1)c1ccc2c(c1)Cc1ccccc1-2` [NGB-2904], the “Log P” value in data set [1] is reported as 6.94 ^h.
In the case of `COc1ccccc1N1CCCN(CCCCNC(=O)c2ccc(CCF)cc2)CC1` [Compound 11e, 4-(2-Fluoroethyl)-N-(4-(4-(2-methoxyphenyl)-1,4-diazepan-1-yl)butyl)benzamide], in data set [2], the “efficacy class at D3 receptors” value is given as “strong partial agonist”.
Regarding `COc1ccccc1N1CCCN(CCCCNC(=O)c2ccc(-c3ccsc3)cc2)CC1` [Compound 11a, N-(4-(4-(2-Methoxyphenyl)-1,4-diazepan-1-yl)butyl)-4-(thiophen-3-yl)benzamide], the “D2/D3 (Ki ratio)” value in data set [3] is > 100.
For the molecule `COc1ccccc1N1CCN(CCCCNC(=O)c2ccc(CCF)cc2)CC1` [WC-44], the “efficacy class at D3 receptors” value in data set [4] is “full agonist”.

The values are drawn from article PMC3733449 (Bioorganic & medicinal chemistry, 2013).
